Data on five compounds can be found in ChEMBL document CHEMBL3045808, “Insect antifeedants from Munronia henryi: structure of munroniamide” (2003).

The test system of assay [1] is Pieris brassicae. The assay can be described thus: Antifeedant activity against fasted third-instar larvae of Pieris brassicae infested in compound-treated Brassica oleracea leaves at 1000 ppm after 48 hr by leaf-disc method relative to control. In kind it is functional.
Assay [2] concerns Pieris brassicae. The assay is described as follows: Insecticidal activity against fasted third-instar larvae of Pieris brassicae infested in compound-treated Brassica oleracea leaves assessed as mortality at 1000 ppm after 6 days relative to control. The following applies: 144 h. In kind it is functional.

Each structure is given as a SMILES string.

In turn, `CCCCCCCCC/C=C\CCC[C@@H](O)[C@@H](O)[C@H](CO[C@@H]1O[C@H](CO)[C@@H](O)[C@H](O)[C@H]1O)NC(=O)[C@H](O)CCCCCCCCCCCCCCCCCCCCCC` gave an Activity in the assay on Pieris brassicae [1] of 62%. The mortality (in general, the percentage killed) at 1000 ppm with Pieris brassicae [2] was 50%.
For `CCCCCCCCC/C=C/CCC[C@@H](O)[C@@H](O)[C@H](CO)NC(=O)[C@H](O)CCCCCCCCCCCCCCCCCCCCCC`, in that order: 3% and 0%.
`CCCCCCCCCCCCC/C=C/[C@@H](O)[C@H](CO)NC(=O)[C@H](O)CCCCCCCCCCCCCCCCCCCCCC` displayed an Activity with Pieris brassicae [1] of 0%. In the assay on Pieris brassicae [2], the mortality at 1000 ppm worked out at 0%.
In turn, `C/C=C(\C)C(=O)O[C@H]1C[C@@H](OC(C)=O)[C@@]2(C(=O)OC)CO[C@H]3[C@@H](O)[C@@](C)([C@]45O[C@@]4(C)[C@@H]4C[C@H]5O[C@@H]5OC=C[C@@]54O)[C@H]4[C@]1(CO[C@]4(O)C(=O)OC)[C@@H]32` [AZADIRACHTIN A] showed an Activity in the assay on Pieris brassicae [1] of 99.5%. Besides, in the assay with Pieris brassicae [2], the mortality at 1000 ppm is 100%.
Taken in the same sequence, the figures for `C=C1[C@@H]2[C@@H](OC(=O)C=C[C@@]2(C)[C@H]2CC(=O)OC2(C)C)[C@H](OC(C)=O)[C@@]2(C)[C@H](C3=CCN(C(=O)CCNN)C3=O)C[C@H]3O[C@]132` [MUNRONIAMIDE] were 27.6% and 10%.
